Experimental data as given in patent publication US9440966B2, “Compounds for treatment of metabolic syndrome” (SJT MOLECULAR RESEARCH, S.L., priority 2011, dated 2016).

Columns and labels:
SHR hypertensive rats = test: Plasma cholesterol levels test in SHR hypertensive rats; type: in vivo, Male SHR; details: 25 days of treatment (15 mg/Kg) oral, effect more pronounced for 5a and 7a
Experimental: (§1) Distinct rat groups were orally treated, once a day, with 5 mg/kg of compounds 4a or 5a or 6a during the first 4 days, 10 mg/kg during the next 4 days and 15 mg/kg until the end of the treatment period or vehicle (control) for the same days. Similarly, another rat group received metformin (MET) (reference drug used for lowering glucose serum levels) in a 300 mg/kg dose, orally, from day 1 to the end of the treatment. Plasma cholesterol levels were measured in triplicate 12 hours after drug administration by the cholesterol oxidase/peroxidase method (BioSystems S.A, Barcelona, Spain). Blood samples were obtained by femoral vein punction. This method was chosen because of its noninvasive character, enabling daily measurements with the same rats throughout the entire treatment.
(§2) Male SHR were provided by Charles River Laboratories (USA). Until the experiments were carried out, the animals have had free access to feed and water. The room temperature was kept at 22±2° C. and the light/dark cycle was of 12 hours. All procedures were submitted to the Animal Experimentation Ethics Committee.
as §1, with “metformin” for “metformin (MET)”, “Blood pressure was” for “Plasma cholesterol levels were”, “4” for “12”, “administration in warmed warmed, restrained, conscious rats” for “administration”, “tail-cuff” for “cholesterol oxidase/peroxidase”, “with a computerized oscillometric system recorder (Nyprem, Cibertec).” for “(BioSystems S.A, Barcelona, Spain). Blood samples were obtained by femoral vein punction.”

female Swiss mice = test: Acute oral toxicology study in a mice model; type: in vivo; details: oral 2000 mg/kg single dose, observation for 14 days
Experimental: The experiments were conducted using female Swiss mice (20-30 g), housed under a 12-h light-dark cycle, with controlled humidity (60-80%), and temperature (22±1° C.). Food and water were freely available to the mice.
Female mice (n=6) were orally (2000 mg/kg) administered with a single dose of 4a, 5a, and 7a for the observation of acute signs of toxicity until 14 days. […] The observations comprised the behavior and manifestations of the toxic symptoms, and were carried out according to the Guidelines of the Organization for Economic Cooperation and Development (OECD, 2008).
All compounds were dissolved in sterile saline and were administered by oral gavage to mice based in the weight, for example 20 g received 20 μL.
The data are expressed as mean±S.E.M. of experiments. Statistical significance was determined through one-way analysis of variances (ANOVA), followed by either Newman-Keuls test. A p<0.05 was considered statistically significant. Graphs were drawn and statistical analysis was carried out using GraphPad Prism version 5.00 for Windows (GraphPad Software, San Diego, Calif., USA).

[1] = Body weight in SHR hypertensive rats; type: in vivo, Male SHR; details: oral once a day 5, 10 then 15 mg/kg
Experimental: as §2
Distinct rat groups were orally treated, once a day, with 5 mg/kg of compound 5a during the first 4 days, 10 mg/kg during the next 4 days and 15 mg/kg until the end of the treatment period or vehicle (control) for the same days. Similarly, another rat group received metformin (reference drug used for lowering glucose serum levels) in a 300 mg/kg dose, orally, from day 1 to the end of the treatment. Rats were weighted in a CHYO MK2000B precision weight chamber.

[2] = tested on: Drosophila melanogaster (Oregon-R strain); test: Toxicology study: larva-to-adult viability and development time; details: in vivo
Excerpt: The purpose of this study was to test and compare the potential toxic effects of compounds 5a, 6a and 7a on the larva-to-adult viability and development time in a Drosophila melanogaster (Oregon-R) flies. These studies have a relevant predictive role with the aim to anticipate possible adverse toxicological effects that may happen during preclinical studies with animal, preferably mammals. In addition, the data provided are highly quantitative.
Drosophila melanogaster (Oregon-R) flies were obtained by the University of the Balearic Islands (Spain). […] The larvae were seeded on standard food supplemented with the appropriate dose of compounds tested. Each compound was tested at 1, 10, 100, 1000 and 2000 μg/ml dissolved in standard food.
Fly adults were transferred from the serial transfer system to bottles with fresh food for 24 h. Adults 5 days old were placed on egg collecting devices (layers) containing a mixture of agar, water, acetic acid, and ethyl alcohol, with a drop of active yeast on it. Every 2 h., the layer glasses were changed, in this way, the eggs of a glass have similar age, with a maximum difference of 2 h. among them. The glasses of the layers were kept at 25° C. for at least 22 h. in Petri dishes until larvae hatched. Fifty larvae were picked with a lancet under a stereoscopic microscope and were seeded into 10×2 cm vials with 5 ml food. Vials were supplemented with 4a, 5a and 7a at 1, 10 and 100 μg/ml. As positive control we used cupric acetate (toxic) at 350 μg/ml.
The number of adult flies which emerged from each vial was counted daily until the exhaustion of the culture. The parameters studied were the larvae-to-adult viability (V) and development time.
Viability is expressed as V=NA/NL, where NL is the input number of larvae ([…] in our case) and NA the output number of adults emerging from these NL larvae. Development time was measured in days by the formula DT=ΣNidi/ΣNi where Ni is the number of flies emerging on the day di after the larvae were placed in the medium.
The data are expressed as the mean±SEM values from 3 independent experiments involving triplicate vials at the number of flies indicated.

Question: What does the source list for `COc1ccc(-c2nc(C(=O)NCCCN)cc3c2[nH]c2ccccc23)cc1` [Compound 5a, N(-propylamine)-1-benzosubstituted-β-carboline-3-carboxamide]?
Answer: plasma cholesterol levels (SHR hypertensive rats): inhibition of plasma cholesterol levels; mortality or behavioral disorders (acute signs of toxicity) (female Swiss mice): did not produce mortality or any behavioral disorders; SHR body weight compared to control untreated rats [1]: statistically significant effect in lowering SHR body weight; larvae-to-adult viability and development time [2]: not affected
